Data set [1] in a line: Pharmacokinetic analysis in humans (serum and urine, DART TOF-MS). Format: in vivo. The following applies: human, ingested in a mixture. The method, then: Five healthy consenting female adults ranging in age from 23 to 57 were took diets free of flavonoids and any NSAIDs. A certified individual collected blood samples at several time intervals between 0 and 480 min after compounds of the present invention were ingested in a mixture. Immediately after the time zero blood samples were collected, a single 100 mg dose of the composition was administered as a lozenge. Blood samples were handled with approved protocols and precautions, centrifuged to remove cells and the serum fraction was collected and frozen. Blood was not treated with heparin to avoid any analytical interference. Urine samples were collected from the same five subjects on a time course (0 to 8 h).
The cells were removed from the blood samples by centrifugation and the serum was collected. Serum samples were prepared for DART TOF-MS analysis by extraction with an equal volume of neat ethanol (USP) to minimize background of proteins, peptides, and polysaccharides present in serum. The ethanol extract was centrifuged for 10 min at 4° C., the supernatant was removed, concentrated to 200 μL volume, and 50 μL of an internal standard was added. Urine samples were not treated and used directly for DART TOF-MS. DART TOF-MS analyses were conducted as described above.

The target in data set [2] is T1, tryptase enzyme (Homo sapiens, UniProt P20231).
T1 construct: purchased Millipore Inc., Westbury, Mass
T1 sequence (P20231 31-275): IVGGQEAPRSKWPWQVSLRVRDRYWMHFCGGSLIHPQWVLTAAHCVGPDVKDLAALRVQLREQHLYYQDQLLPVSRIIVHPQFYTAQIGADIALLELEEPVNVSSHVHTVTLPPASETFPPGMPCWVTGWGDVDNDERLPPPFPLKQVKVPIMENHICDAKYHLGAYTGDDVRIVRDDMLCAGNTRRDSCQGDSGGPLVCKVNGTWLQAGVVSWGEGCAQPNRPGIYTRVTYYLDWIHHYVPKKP
In words: Tryptase inhibition (cleavage of tosyl-gly-pro-lys-pNA, absorbance at 405 nm). It is filed as biochemical. The following applies: relative to controls; 2 h at 37° C. The method, then:
Tryptase activity was determined by monitoring the production of chromophore p-nitroaniline (pNA) generated by the cleavage of tosyl-gly-pro-lys-pNA by the tryptase enzyme according to the manufacturer's protocol (Millipore Inc., Westbury, Mass.). In a 96-well format, 10 μL of tryptase was added to 10 μL of sample, followed by 20 μL of tosyl-gly-pro-lys-pNA and 160 μL of 1× reaction buffer and incubated for 2 h at 37° C. After the incubation, absorbance at 405 nm was measured in each well using a Tecan M200 microplate reader.

For the compound `CCCCCC/C=C/CN(c1ccc(C)cc1)c1ccc(S)cn1` [compound (V)], in data set [1] (single 100 mg lozenge), the “time to appearance in the bloodstream (serum) after ingestion” value is on record as ≤ 10 min and the “time to appearance in urine after ingestion” value was ≤ 1 h. Also, the “time present in the serum post-ingestion” value in data set [1] (single 100 mg lozenge, sampling 0 to 480 min) is “up to 480 min”. For the same compound, the “persistence in the urine post-ingestion” value in data set [1] (urine collected 0 to 8 h) is “up to 8 h”.

As to `CCCCCC/C=C/CN(c1ccc(C)cc1)c1ccc(SSc2ccc(N(C/C=C/CCCCCC)c3ccc(C)cc3)nc2)cn1` [compound [7]], the IC50 (in general, the concentration that gives 50% inhibition) in data set [2] is 789 µM.

Values taken from patent US20100113523A1 (priority 2008, published 2010).
